The values that follow come from patent US11083723B2, “Use of roluperidone to treat negative symptoms and disorders, increase neuroplasticity, and promote neuroprotection” (Minerva Neurosciences, Inc., priority 2018, dated 2021).

One data set concerns muscarinic receptors. Kind of data set: Receptor affinity, muscarinic. Format: binding.
A further data set has as its target sigma2 receptors (Homo sapiens, UniProt Q5BJF2). Kind of data set: Molecular binding profile, sigma2.
For data set [1], the target named is alpha1-adrenergic receptors. The data set is described as follows: Molecular binding profile, alpha1-adrenergic.
Data set [2] concerns negative symptoms in schizophrenia. The data set is described as follows: Phase 2b clinical study, negative symptoms in schizophrenia. Format: in vivo, human. The conditions noted are these: both tested doses (32 mg and 64 mg).
The conditions of data set [3]: modified release (MR) formulation of Compound (I) that reduces QT prolongation; cited from earlier work.
The subject of data set [4] is BDNF release by primary rat astrocytes. Kind of data set: BDNF release by primary rat astrocytes, in situ ELISA. The note with it: 5 days incubation. Format: cell-based. The procedure: At confluency, astrocytes were plated in 96-well Nunc MaxiSorp surface polystyrene flat-bottom immunoplate precoated with poly-D-lysine during 30 min. and an anti-BDNF monoclonal antibody overnight at 4° C. at a density of 30,000 cells/well. […] At the end of drug treatment, cells were carefully washed with TBST (20 mM Tris-HCl (pH 7.6), 150 mM NaCl, and 0.05% (vol/vol) Tween 20). The plate was then incubated with the polyclonal anti-human BDNF antibody overnight and BDNF quantified. Experimental Protocol-In Situ ELISA on Primary Astrocytes Rat Primary Culture of Astrocytes Rat mixed glial cells were cultured as described by McCarthy et al. Primary rat glial cells were prepared from the cortical of newborn Wistar rats (1 day). […] Medium was changed 3 times per week. At confluency, astrocytes were plated in 96-well Nunc MaxiSorp surface polystyrene flat-bottom immunoplate precoated with poly-D-lysine during 30 min (Sigma, Ref: […], batch: SLBS8705) and an anti-BDNF monoclonal antibody overnight at 4° C. at a density of 30,000 cells/well. (Balkowiec and Katz “Cellular Mechanisms Regulating Activity-Dependent Release of Native Brain-Derived Neurotrophic Factor from Hippocampal Neurons” J. […] At the end of drug treatment, cells were carefully washed with TBST (20 mM Tris-HCl (pH 7.6), 150 mM NaCl, and 0.05% (vol/vol) Tween 20). The plate was then incubated with the polyclonal anti-human BDNF antibody overnight. The amount of specifically bound polyclonal antibody, which when exposed to chromogenic substrate (TMB reagent; Promega), changes color in proportion to the amount of BDNF present in the sample. The color intensity was quantified by measuring the absorbance at 450 nm. BDNF standards, ranging in concentration from 0 to 500 pg/mL were added in parallel wells in the same medium than hippocampal neurons.
(An ELISA detects its analyte on a solid surface through an enzyme-linked reagent.)

In data set [5] the test system is GDNF release by primary rat astrocytes. Kind of data set: GDNF release by primary rat astrocytes, in situ ELISA. Format: cell-based. The note with it: 5 days incubation. As for the experimental part:
Experimental Protocol-In Situ ELISA on Primary Astrocytes Rat Primary Culture of Astrocytes Rat mixed glial cells were cultured as described by McCarthy et al. Primary rat glial cells were prepared from the cortical of newborn Wistar rats (1 day). Briefly, meninges and blood vessels of the mice cortex were removed and placed in ice-cold medium of Leibovitz (L15; PanBiotech, ref P04-27055, batch 4511117) containing 2% Penicillin-Streptomycin (PS; PanBiotech, ref P06-07100, batch 2110917) and 1% of bovine serum albumin (BSA; […] Cells were then submitted to a supplementary incubation of 15 min. at 37° C. in presence of deoxyribonuclease I (0.1 mg/mL Panbiotech, ref: P60-37780100, batch: H140508). Cells were then pelleted (5 min. at 1200 rpm) and trypsinization was stopped by adding DMEM (PanBiotech, Ref P04-03600, Batch 8420517) supplemented with 10% FCS (Fischer, Ref 10270106, batch 41A0940K), 1 mM of Na/pyruvate (PanBiotech, ref: P04-43100, batch 3470914). Cells suspension was mechanically dissociated and filtered through […] diameter nylon meshes (BD Falcon, Ref: 352340). The cells were collected by centrifugation at 1200 rpm/min for 10 min, resuspended in culture medium and then plated in culture flasks (Dutscher, ref: 690175). Cells were seeded at a density of 1.25×10^5 cells/cm^2 and culture in 5% CO2 at 37° C. Medium was changed 3 times per week. At confluency, astrocytes were plated in 96-well Nunc MaxiSorp surface polystyrene flat-bottom immunoplate precoated with poly-D-lysine during 30 min (Sigma, Ref: […], batch: SLBS8705) and an anti-GDNF monoclonal antibody overnight at 4° C. at a density of 30,000 cells/well. […] At the end of drug treatment, cells were carefully washed with TBST (20 mM Tris-HCl (pH 7.6), 150 mM NaCl, and 0.05% (vol/vol) Tween 20). The plate was then incubated with the polyclonal anti-human GDNF antibody overnight. The amount of specifically bound polyclonal antibody, which when exposed to chromogenic substrate (TMB reagent; Promega), changes color in proportion to the amount of GDNF present in the sample. The color intensity was quantified by measuring the absorbance at 450 nm. GDNF standards, ranging in concentration from 0 to 500 pg/mL were added in parallel wells in the same medium than hippocampal neurons.

A further data set relates to histaminergic receptors. Kind of data set: Receptor affinity, histaminergic. Format: binding.
For a further data set, the system named is QT prolongation. The conditions noted are these: patients treated with Compound (I); related to plasma levels of Compound (I) and metabolite BFB-520; cited from earlier work.

Where a name gives a salt, the structure may show the parent alone.

sigma2 receptors, sequence (Q5BJF2 whole entry): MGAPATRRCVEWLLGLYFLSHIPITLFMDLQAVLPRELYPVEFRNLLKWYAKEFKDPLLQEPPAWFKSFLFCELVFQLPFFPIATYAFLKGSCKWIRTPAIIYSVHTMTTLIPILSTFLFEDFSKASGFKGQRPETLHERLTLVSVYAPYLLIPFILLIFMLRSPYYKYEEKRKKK

For orientation: Ki means a measure of affinity in units of concentration, obtained from inhibition or displacement. A higher Ki goes with lower affinity. Take `O=C(CN1CCC(CN2Cc3ccccc3C2=O)CC1)c1ccc(F)cc1` [Compound (I), 1H-Isoindol-1-one, 2-[[1-[2-(4-Fluorophenyl)-2-oxoethyl]-4-piperidinyl]methyl]-2,3-dihydro-, hydrochloride, hydrate (1:1:2)]: in the data set on muscarinic receptors, the “affinity for muscarinic receptors” value is “no affinity”. For the same compound, the values for the inhibitory constant (Ki) (at sigma2 receptors; in data set [1]) were 8.2 nM and 14.4 nM, respectively. At sigma2 receptors (sigma2 versus sigma1), the “selectivity sigma2 versus sigma1 receptors” value was found to be 30 fold. For the same compound, in data set [2], the “benefit over placebo in improving negative symptoms in schizophrenia” value is listed as “statistically significant benefit”. The “maximum plasma concentration (Cmax)” value in [3] was “below 80 ng/mL”. Further, the “BDNF release astrocytes, % increase of control conditions” value in data set [4] (3 nM) turned out to be 6.8%; in data set [4] (10 nM), 16.2%; in data set [4] (30 nM), 17.1%; in data set [4] (100 nM), 18.9%; in [4] (300 nM) it was 29.5%; in data set [4] (1 μM) it was 16.9%. The “GDNF release astrocytes, % increase of control conditions” value turned out to be 11.4% in [5] (3 nM); 13.8% in [5] (10 nM); 14.2% in data set [5] (30 nM); 14.8% in data set [5] (100 nM); 20.8% in [5] (300 nM); 17.5% in data set [5] (1 μM). The “affinity for histaminergic receptors” value in the data set on histaminergic receptors is given as “no affinity”. Besides, the “QT prolongation in patients” value with QT prolongation is recorded as “QT prolongation in patients treated with Compound (I) has been observed”.
